{
  "source": "patent US20130096159A1",
  "about": "“INHIBITORS OF HUMAN 12-LIPOXYGENASE” (The United States of America, as represented the Secretary …, priority 2010, published 2013)",
  "key": {"[1]": {"system": "human platelets", "assay": "dense granule secretion (ATP release) in washed platelets", "type": "cell-based", "settings": "induced by thrombin, PAR1-AP, PAR4-AP, ADP, arachidonic acid, collagen; FIG. 3", "protocol": "(§1) Human platelets were obtained from healthy volunteers from within the Thomas Jefferson University community and the Philadelphia area. These studies were approved by the Thomas Jefferson University Institutional Review Board. Informed consent was obtained from all donors before blood draw. Blood was centrifuged at 200 g for 15 min at room temperature. Platelet-rich plasma was transferred into a conical tube containing a 10% acid citrate dextrose solution (39 mM citric acid, 75 mM sodium citrate, and 135 mM glucose, pH 7.4) and centrifuged at 2000 g for 15 min at room temperature. Platelets were resuspended in Tyrode's buffer (12 mM NaHCO3, 127 mM NaCl, 5 mM KCl, 0.5 mM NaH2PO4, 1 mM MgCl2, 5 mM glucose, and 10 mM HEPES), and the final platelet concentration was adjusted as indicated after counting using a Coulter counter (Beckman Coulter, Fullerton, Calif.). Reported results are the data obtained using platelets from at least three different subjects.\nWashed platelets were obtained as described in Example 10. […] After addition of 5 μl of Chrono-lume reagent (Chrono-log Corp., Havertown, Pa.), ATP release was measured in response to stimulation by the agonists thrombin, PAR1-AP, PAR4-AP, ADP, arachidonic acid, and collagen using a Lumi-aggregometer Model 700D (Chrono-log Corp., Havertown, Pa.) at 37° C. with stirring at 1100 rpm. […]"}, "[2]": {"system": "integrin αIIbβ3 in human platelets", "assay": "activation of integrin αIIbβ3, PAC1 binding by flow cytometry", "type": "cell-based", "settings": "vs agonists alone (thrombin, PAR1-AP, PAR4-AP, ADP); FIG. 5", "protocol": "as §1\nWashed platelets were obtained as described in Example 10. Flow cytometry was used to measure the activation of integrin αIIbβ3. Specifically, PAC1 (an antibody which only binds to αIIbβ3 when the protein is in its active conformation) binding was used to selectively detect the conformational activation of αIIbβ3. […] The fluorescence intensity of 10,000 platelets was immediately measured using a C6 Accuri flow cytometer. […]"}, "[3]": {"target": "T1, recombinant human cPLA2 (Homo sapiens, UniProt P47712)", "T1 sequence (P47712 1-749)": "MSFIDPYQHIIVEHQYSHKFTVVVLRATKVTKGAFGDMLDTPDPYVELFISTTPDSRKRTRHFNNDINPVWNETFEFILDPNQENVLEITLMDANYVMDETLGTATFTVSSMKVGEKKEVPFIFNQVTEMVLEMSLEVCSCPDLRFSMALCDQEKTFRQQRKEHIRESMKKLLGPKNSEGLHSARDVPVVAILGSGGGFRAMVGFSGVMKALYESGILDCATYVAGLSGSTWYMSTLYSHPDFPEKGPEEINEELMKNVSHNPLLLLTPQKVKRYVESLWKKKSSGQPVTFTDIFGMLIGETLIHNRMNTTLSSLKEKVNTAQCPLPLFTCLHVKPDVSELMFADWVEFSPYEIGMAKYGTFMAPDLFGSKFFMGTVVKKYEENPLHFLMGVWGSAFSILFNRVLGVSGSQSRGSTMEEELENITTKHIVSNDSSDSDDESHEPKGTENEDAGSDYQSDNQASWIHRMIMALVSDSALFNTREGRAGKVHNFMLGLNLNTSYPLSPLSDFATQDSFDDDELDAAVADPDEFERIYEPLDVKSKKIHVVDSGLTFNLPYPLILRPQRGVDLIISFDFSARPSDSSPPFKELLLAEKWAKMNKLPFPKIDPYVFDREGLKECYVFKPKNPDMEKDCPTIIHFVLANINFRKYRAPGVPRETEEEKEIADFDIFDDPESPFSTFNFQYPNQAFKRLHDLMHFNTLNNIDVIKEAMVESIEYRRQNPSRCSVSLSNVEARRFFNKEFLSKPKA", "assay": "cPLA2 enzymatic activity assay", "type": "biochemical", "settings": "50 μM, 5 min of incubation; FIG. 8", "protocol": "A., et al., Biochemistry, 2011, 50: 1731-1738 with the following differences. The inhibitors in solution in DMSO were added at a final concentration of 50 μM right before the recombinant enzyme was added to initiate the reaction. After 5 min of incubation, the products of reaction were analyzed, and the results depicted in FIG. 8."}, "[4]": {"system": "human platelets", "assay": "platelet aggregation in response to agonists, light transmission aggregometry", "type": "cell-based", "settings": "agonists thrombin, arachidonic acid, PAR1-AP, PAR4-AP, ADP, collagen; 10 min pretreatment; FIG. 2", "protocol": "as §1\nWashed platelets were obtained as described in Example 10. […] Platelets were pretreated with compound 1 for 10 min and aggregation in response to stimulation by the agonists thrombin, PAR1-AP, PAR4-AP, ADP and collagen at various agonist concentrations was measured via the light transmission aggregometry method using a lumi-aggregometer model 700D (Chrono-log Corp., Havertown, Pa.) with stirring at 1100 rpm at 37° C. […]"}, "[5]": {"system": "Human islets", "assay": "gene expression in cytokine-stimulated human islets, Taqman real time PCR", "type": "cell-based", "settings": "TNF-α", "protocol": "Human islets were incubated for 22 hours following stimulation with the inflammatory cytokines IFN-γ, TNF-α, and IL-1-β alone or in the presence of compound 1 or compound 9. Control islets were incubated for 22 hours in the absence of inflammatory cytokines or compounds. Following the incubation, gene expression for 12-LO, 15-LO, 5-LO, IL-12p40, and IFN-γ were determined using Taqman real time PCR."}, "[6]": {"settings": "relative to control islets, IFN-γ, IL-1-β stimulation, 22 hours"}},
  "data": [
    {"compound": "CCC(=O)NC(c1cccs1)c1cc([N+](=O)[O-])c2cccnc2c1O", "note": "(centres unmarked) [Compound 1, N-((8-hydroxy-5-nitroquinolin-7-yl)(thiophen-2-yl)methyl)propionamide]", "values": [
      {"measurement": "ATP secretion (dense granule secretion)", "setting": "[1]", "value": "substantially complete blockage of ATP secretion"},
      {"measurement": "binding of PAC1 on the surface of the platelets", "setting": "[2]", "value": "decreased binding of PAC1"},
      {"measurement": "inhibition of cPLA2", "setting": "[3]", "value": "did not inhibit cPLA2"},
      {"measurement": "dose response curves for platelet aggregation", "setting": "[4]", "value": "substantially unaffected"},
      {"measurement": "reduction in IFN-γ expression", "setting": "[5]; induced by IFN-γ, IL-1-β", "value": 4, "unit": "fold"},
      {"measurement": "reduction in IL-12p40 mRNA expression", "setting": "[5]; induced by IFN-γ, IL-1-β", "value": 40, "unit": "fold"},
      {"measurement": "Change in Gene Expression 5-LO", "setting": "[5]; [6]", "value": 1},
      {"measurement": "Change in Gene Expression 12-LO", "setting": "[5]; [6]", "value": 13},
      {"measurement": "Change in Gene Expression 15-LO", "setting": "[5]; [6]", "value": 1},
      {"measurement": "Change in Gene Expression IFN-γ", "setting": "[5]; [6]", "value": 25},
      {"measurement": "Change in Gene Expression IL-12p40", "setting": "[5]; [6]", "value": 3}
    ]}
  ]
}
